Assay [1] deals with T1, RAF kinases (Homo sapiens, UniProt P04049).
T1 construct: rows headed: RAF1 Kd; other: RAF1; fused on or other part: T7 phage fusion, or DNA tag for PCR detection after expression in HEK-293 cells
In words: Competition binding assay to determine binding constants (Kd) between compounds and RAF kinases. The conditions noted are these: RAF1.
Method: (§1) Competition binding assays used herein were developed, validated and performed as described in Fabian et al., Nature Biotechnology 2005, 23, 329-336. […] The liganded beads were blocked with excess biotin and washed with blocking buffer (SeaBlock (Pierce), 1% BSA, 0.05% Tween 20, 1 mM DTT) to remove unbound ligand and to reduce non-specific binding. […] Test compounds were prepared as 100× stocks in DMSO and rapidly diluted into the aqueous environment. DMSO was added to control assays lacking a test compound. Primary screen interactions were performed in polypropylene 384-well plates in a final volume of 34 μL, while Kd determinations were performed in polystyrene 96-well plates in a final volume of 135 pt. […] The kinase concentration in the eluates was measured by quantitative PCR. Each kinase was tested individually against each compound. Kds were determined using eleven serial threefold dilutions. A selectivity score, which is a quantitative measure of selectivity of a compound against a panel of enzymes, may be calculated for a compound by dividing the number of enzymes for which a compound meets a set criteria, (for example, a binding constant of 100 nM or less), by the total number of enzymes tested. […] (Note, for those compounds tested in a larger kinase panel, as indicated by an asterisk (*) next to the S35 score, the divisor is 321 (i.e. the larger panel contains 321 distinct kinases, excluding mutant variants.)).

For assay [2], the system named is panel of 290 distinct kinases (321 in the larger panel), excluding mutant variants. The conditions noted are these: no asterisk: panel of 290 distinct kinases.
Method: as §1
For assay [3], the target named is T2, RAF kinases (Homo sapiens, UniProt P15056, V600E).
T2 construct: rows headed: BRAF V600E Kd; other: BRAF V600E; fused on or other part: T7 phage fusion, or DNA tag for PCR detection after expression in HEK-293 cells
T2 sequence (P15056 whole entry V600E, the tested form may be a part): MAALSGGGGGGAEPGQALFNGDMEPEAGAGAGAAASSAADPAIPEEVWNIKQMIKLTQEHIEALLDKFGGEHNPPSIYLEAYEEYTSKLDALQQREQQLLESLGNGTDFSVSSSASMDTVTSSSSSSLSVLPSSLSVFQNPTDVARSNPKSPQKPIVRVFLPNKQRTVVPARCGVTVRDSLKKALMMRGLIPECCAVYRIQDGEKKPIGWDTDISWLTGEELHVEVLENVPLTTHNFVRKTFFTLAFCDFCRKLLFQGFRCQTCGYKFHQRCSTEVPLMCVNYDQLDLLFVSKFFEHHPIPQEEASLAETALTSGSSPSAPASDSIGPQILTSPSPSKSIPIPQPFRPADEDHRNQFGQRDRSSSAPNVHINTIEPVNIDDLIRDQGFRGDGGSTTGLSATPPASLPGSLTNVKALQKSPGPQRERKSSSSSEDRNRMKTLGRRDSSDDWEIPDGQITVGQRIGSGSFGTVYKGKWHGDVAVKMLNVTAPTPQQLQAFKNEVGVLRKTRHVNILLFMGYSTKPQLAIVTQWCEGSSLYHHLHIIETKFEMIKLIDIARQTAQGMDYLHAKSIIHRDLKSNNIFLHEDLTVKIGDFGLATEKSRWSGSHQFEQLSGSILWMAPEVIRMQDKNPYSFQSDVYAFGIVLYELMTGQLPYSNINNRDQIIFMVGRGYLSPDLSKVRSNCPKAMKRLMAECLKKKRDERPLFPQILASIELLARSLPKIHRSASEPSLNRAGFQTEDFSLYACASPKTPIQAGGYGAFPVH
In words: Competition binding assay to determine binding constants (Kd) between compounds and RAF kinases. Particulars: BRAF V600E.
Method: as §1

Assay [4] deals with T3, RAF kinases (Homo sapiens, UniProt P15056).
T3 construct: rows headed: BRAF WT Kd; other: BRAF WT; fused on or other part: T7 phage fusion, or DNA tag for PCR detection after expression in HEK-293 cells
T3 sequence (P15056 whole entry, the tested form may be a part): as the sequence (P15056 whole entry V600E, the tested form may be a part) above, with E600V counted along it
Described as above. The conditions noted are these: BRAF WT.
Method: as §1

[5] abbreviates: fraction of kinases inhibited 65% or greater.

Read-outs that look alike come from different tables or passages of the source.

T1 sequence (P04049 whole entry, the tested form may be a part): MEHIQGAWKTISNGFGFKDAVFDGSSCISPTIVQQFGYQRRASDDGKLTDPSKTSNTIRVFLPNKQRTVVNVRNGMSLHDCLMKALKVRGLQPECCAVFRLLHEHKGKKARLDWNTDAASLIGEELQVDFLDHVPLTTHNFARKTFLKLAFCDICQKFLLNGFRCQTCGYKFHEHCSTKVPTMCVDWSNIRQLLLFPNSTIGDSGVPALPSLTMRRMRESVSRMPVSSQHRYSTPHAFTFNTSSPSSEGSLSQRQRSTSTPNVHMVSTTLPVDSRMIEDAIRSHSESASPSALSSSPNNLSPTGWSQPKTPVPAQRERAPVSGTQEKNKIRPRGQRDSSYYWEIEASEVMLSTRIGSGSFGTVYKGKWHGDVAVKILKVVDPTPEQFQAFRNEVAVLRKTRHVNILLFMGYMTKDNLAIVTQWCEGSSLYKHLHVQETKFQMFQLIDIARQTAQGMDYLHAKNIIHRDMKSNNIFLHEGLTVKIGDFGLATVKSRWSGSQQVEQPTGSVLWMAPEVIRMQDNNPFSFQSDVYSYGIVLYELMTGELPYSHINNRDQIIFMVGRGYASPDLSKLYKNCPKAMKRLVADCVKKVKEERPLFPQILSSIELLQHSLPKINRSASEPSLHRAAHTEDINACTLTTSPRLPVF

For the molecule `COc1cc2ncnc(Oc3cc(NC(=O)Nc4cc(C(C)(C)C)on4)ccc3Cl)c2cc1OC` [Ex 10, 1-(5-tert-butylisoxazol-3-yl)-3-(4-chloro-3-(6,7-dimethoxyquinazolin-4-yloxy)phenyl)urea], the Kd in assay [1] is 0.5 to 1 µM. The S35 result in assay [2] (setting [5]) is “D (D > 0.40)”. The molecule `COc1cc2ncnc(Oc3cccc(NC(=O)Nc4cc(C(F)(F)F)n(-c5ccccc5)n4)c3)c2cc1OC` [Ex 169, 1-[3-(6,7-dimethoxyquinazolin-4-yloxy)phenyl]-3-[1-phenyl-5-(trifluoromethyl)-1H-pyrazol-3-yl]urea] had an equilibrium dissociation constant (Kd) in assay [3] of 0.25 to 0.5 µM. `COc1cc2ncnc(Oc3cccc(NC(=O)Nc4ccc(Cl)cc4)c3)c2cc1OC` [Ex 175, 1-(4-chlorophenyl)-3-(3-(6,7-dimethoxyquinazolin-4-yloxy)phenyl)urea]: the Kd in assay [1], in assay [4] and in assay [3] was less than 0.25 µM in each case. Also, the S35 result in assay [2] (setting [5]) was “C (0.20 < C ≦ 0.40)”. Regarding `CCc1cc(NC(=O)Nc2cccc(Oc3ncnc4cc(OC)c(OC)cc34)c2)n(-c2ccccc2)n1` [Ex 352, 1-(3-(6,7-dimethoxyquinazolin-4-yloxy)phenyl)-3-(3-ethyl-1-phenyl-1H-pyrazol-5-yl)urea], in assay [2], the S35 entry is “C (0.20 < C ≦ 0.40)”. In the case of `COc1cc2ncnc(Oc3cccc(NC(=O)Nc4cc(C5CC5)nn4-c4ccccc4)c3)c2cc1OC` [Ex 353, 1-(3-cyclopropyl-1-phenyl-1H-pyrazol-5-yl)-3-(3-(6,7-dimethoxyquinazolin-4-yloxy)phenyl)urea], the S35 result in assay [2] was “C (0.20 < C ≦ 0.40)”. The same measure, in the same setting: with `COc1cc2ncnc(Sc3cccc(NC(=O)Nc4cc(C5CC5)nn4-c4ccccc4)c3)c2cc1OC` [Ex 354, 1-(3-cyclopropyl-1-phenyl-1H-pyrazol-5-yl)-3-(3-(6,7-dimethoxyquinazolin-4-ylthio)phenyl)urea] the entry was “C (0.20 < C ≦ 0.40)”; with `COc1cc2ncnc(Oc3cccc(NC(=O)Nc4cc(C5CCC5)nn4-c4ccccc4)c3)c2cc1OC` [Ex 355, 1-(3-cyclobutyl-1-phenyl-1H-pyrazol-5-yl)-3-(3-(6,7-dimethoxyquinazolin-4-yloxy)phenyl)urea], “C (0.20 < C ≦ 0.40)”.

The Kd is the equilibrium constant for the complex coming apart.

For the origin of these results see US9320739B2 (AMBIT BIOSCIENCES CORPORATION, priority 2008, dated 2016).
